Reference: US12473250B2, “Molecular design of new antibiotics and antibiotic adjuvants against MCR strains” (priority 2019, dated 2025)

Columns and labels:
[1] = system: ACBA multi-drug resistant strains; assay: Synergy of LC100 with colistin against multi-drug resistant strains (Table 5); type: cell-based, Acinetobacter baumannii
Description: (§1) The MICs of the individual drugs and LC compound in combinations were determined using the broth microdilution technique as recommended by the CLSI whereby the two anti-microbial agents were added in an equal amount. (e.g.: 50 μL of Colistin: 50 μL of LC compounds). Diluted media containing compounds and antibiotics will be serially diluted 2-fold, and LC compounds and antibiotics alone or in combination will be assayed at fixed synergy concentration. In all cases, the lowest concentration at which no visible growth occurred was be recorded to be the MIC value of individual and combined antibacterial agents. The results were obtained after 24 hours of incubation.

[2] = system: ENT CLOACAE multi-drug resistant strains; assay: as above; type: cell-based, E. cloacae
Description: as §1

[3] = system: EC strains (CRE strains, colistin sensitive); assay: MIC of polymyxin B or colistin alone (Table 4); type: cell-based, E. coli; design: unit: μg/mL
Description: MIC experiments of the antimicrobial agents were determined by a modified broth microdilution method in accordance with the Clinical and Laboratory Standards Institute (CLSI) guidelines using 96 well culture plates. In brief, serial dilutions of all plates were prepared at different concentrations (μg). The inoculum suspension was prepared by adding isolated colonies from a 18-20 hours on TSA plate into phosphate buffer (0.31 mM, pH 7.2) or in water for injection (BBraun) and adjusting the suspension to a turbidity equivalent to 0.5 McFarland Standard. Each well contained a final bacterial concentration of approximately 5×10^5 colony forming units (CFU)/mL. The plate was covered and incubated at 35° C. for 24 hours. […] For the microdilution plates, turbidity in wells can be measured at OD600 using TECAN infinite M200Pro. MIC was determined as […] concentration that gives a 99 percent inhibition.

Row | Molecule | Colistin MIC in the presence of LC100 ([1]; strain ACBA 1010, LC 100 2 μg) [µg/mL] | Colistin MIC in the presence of LC100 ([1]; strain ACBA 1010, LC 100 5 μg) [µg/mL] | Colistin MIC in the presence of LC100 ([1]; strain ACBA 1012, LC 100 2 μg) [µg/mL] | Colistin MIC in the presence of LC100 ([1]; strain ACBA 1012, LC 100 5 μg) [µg/mL] | Colistin MIC in the presence of LC100 ([1]; strain ACBA 43357, LC 100 2 μg) [µg/mL] | Colistin MIC in the presence of LC100 ([1]; strain ACBA 43357, LC 100 5 μg) [µg/mL] | Colistin MIC in the presence of LC100 ([1]; strain ACBA ATCC 19606, LC 100 2 μg) [µg/mL] | Colistin MIC in the presence of LC100 ([1]; strain ACBA ATCC 19606, LC 100 5 μg) [µg/mL] | Colistin MIC in the presence of LC100 ([2]; strain ENT CLOACAE 6780, LC 100 2 μg) [µg/mL] | Colistin MIC in the presence of LC100 ([2]; strain ENT CLOACAE 6780, LC 100 5 μg) [µg/mL] | Colistin MIC in the presence of LC100 ([2]; strain ENT CLOACAE 21489, LC 100 2 μg) [µg/mL] | Colistin MIC in the presence of LC100 ([2]; strain ENT CLOACAE 21489, LC 100 5 μg) [µg/mL] | Colistin MIC in the presence of LC100 ([2]; strain ENT CLOACAE 30063, LC 100 2 μg) [µg/mL] | Colistin MIC in the presence of LC100 ([2]; strain ENT CLOACAE 30063, LC 100 5 μg) [µg/mL] | Colistin MIC in the presence of LC100 ([2]; strain ENT CLOACAE 44095, LC 100 2 μg) [µg/mL] | Colistin MIC in the presence of LC100 ([2]; strain ENT CLOACAE 44095, LC 100 5 μg) [µg/mL] | MIC (antibiotic alone) ([3]; strain EC 17232) | MIC (antibiotic alone) ([3]; strain EC 17528) | MIC (antibiotic alone) ([3]; strain EC 19963)
1 | CCN(CC)CCCCOc1ccc(/C=C/C(=O)c2ccc(OCCCCN(CC)CC)c(CC=C(C)C)c2O)cc1 [LC100] | <0.0975 | <0.0975 | 0.39 | <0.0975 | 0.39 | <0.0975 | 0.195 | <0.0975 | 0.39 | <0.0975 | 0.195 | <0.0975 | 25 | 6.25 | >25 | >25 | – | – | –
2 | Colistin | – | – | – | – | – | – | – | – | – | – | – | – | – | – | – | – | 0.195 | 0.78 | 1.56
